Assay results taken from patent US11833162B2, “Macrocyclic derivatives, process for preparing same and pharmaceutical compositions containing same” (LES LABORATOIRES SERVIER, priority 2017, dated 2023).

Assays:
[1] = target: Bcl-2 protein (histag-Bcl-2, UniProtKB P10415) (Homo sapiens, UniProt P10415); assay: Inhibition of Bcl-2 by the fluorescence polarisation technique; type: binding; settings: for IC50: fluorescence polarisation, 2 hours incubation, read-out: IC50 (μM) Bcl-2 FP
Protocol: The fluorescence polarisation tests were carried out on microplates (384 wells). The Bcl-2 protein, labelled (histag-Bcl-2 such that Bcl-2 corresponds to the UniProtKB® primary accession number: P10415), at a final concentration of 5×10^−9M, is mixed with a fluorescent peptide (Fluorescein-REIGAQLRRMADDLNAQY), at a final concentration of 1.00×10^−9M in a buffer solution (Hepes 10 mM, NaCl 150 mM, Tween20 0.05%, pH 7.4), in the presence or absence of increasing concentrations of test compounds. After incubation for 2 hours, the fluorescence polarisation is measured.

[2] = tested on: RS4; 11 leukaemia tumour line; assay: In vitro cytotoxicity, Microculture Tetrazolium Assay (MTT); type: cell-based; settings: Homo sapiens, RS4-11, 48 h, 11 cells, 48 hours exposure
Protocol: The cytotoxicity studies were carried out on the RS4; 11 leukaemia tumour line.
The cells are distributed onto microplates and exposed to the test compounds for 48 hours.
The cell viability is then quantified by a colorimetric assay, the Microculture Tetrazolium Assay (Cancer Res., 1987, 47, 939-942).

Chain of Bcl-2 protein (P10415 whole entry): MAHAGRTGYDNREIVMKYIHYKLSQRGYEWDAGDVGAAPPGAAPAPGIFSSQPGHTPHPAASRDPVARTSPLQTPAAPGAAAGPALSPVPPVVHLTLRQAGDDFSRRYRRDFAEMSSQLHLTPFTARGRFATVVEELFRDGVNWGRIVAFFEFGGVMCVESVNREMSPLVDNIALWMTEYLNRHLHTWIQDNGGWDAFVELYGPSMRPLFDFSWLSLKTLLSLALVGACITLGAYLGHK

IC50 [1]	Bcl-2 FP, % at given concentration ([1]; @1.1 μM)	Bcl-2 FP, % at given concentration ([1]; @10 μM)	SMILES	IC50 [2]
0.0153 µM	–	–	Cc1c2cc(n1C)-c1cc(Cl)ccc1C(=O)N1Cc3ccccc3C(CCOc3c(cnn3C)N(c3ccc(O)cc3)C2=O)C1 (stereo not drawn) [Example 22, 11-Chloro-4-(4-hydroxyphenyl)-1,7,8-trimethyl-1,4,16,21,22,23-hexahydro-14H-15,21-methano-6,9-(metheno)dibenzo[j,o]pyrazolo[3,4-b][1,4,8,13]oxatriaza-cyclononadecine-5,14(8H)-dione]	0.0118 µM
0.0143 µM	–	–	Cc1c2cc(n1C)-c1cc(Cl)ccc1C(=O)N1CCc3c(cccc3OCCc3c(cnn3C3CCOC3)N(c3ccc(O)cc3)C2=O)C1 (stereo not drawn) [Example 23, 11-Chloro-4-(4-hydroxyphenyl)-7,8-dimethyl-1-(tetrahydrofuran-3-yl)-1,4,16,17,23,24-hexahydro-14H-15,18-methano-6,9-(metheno)dibenzo[l,r]pyrazolo[3,4-d][1,6,10,15]oxatriazacyclononadecine-5,14(8H)-dione]	0.0733 µM
0.0149 µM	–	–	Cc1c2cc(n1C)-c1cc(Cl)ccc1C(=O)N1Cc3cccc(c3C1)OCCc1c(cnn1C)N(c1ccc(O)cc1)C2=O [Example 24, 11-Chloro-4-(4-hydroxyphenyl)-1,7,8-trimethyl-1,4,22,23-tetrahydro-14H,16H-15,17-methano-6,9-(metheno)dibenzo[b,g]pyrazolo[4,3-o][1,5,10,14]oxatriaza-cyclooctadecine-5,14(8H)-dione]	0.106 µM
0.0098 µM	–	–	Cc1c(N2C(=O)c3cc(n(C)c3C)-c3cc(Cl)ccc3C(=O)N3CCC(CCOc4cc(O)ccc42)CC3)cc(C#N)n1C [Example 27, 4-[15-Chloro-3-hydroxy-18,19-dimethyl-12,21-dioxo-7,8,9,10,18,21-hexahydro-6H,12H,22H-8,11-ethano-20,17-(metheno)dibenzo[b,j][1,4,8,13]oxatriaza-cyclooctadecin-22-yl]-1,5-dimethyl-1H-pyrrole-2-carbonitrile]	0.104 µM
0.0288 µM	–	–	Cc1c(N2C(=O)c3cc(n(C)c3C)-c3ccccc3C(=O)N3CCC(CCOc4cc(O)ccc42)CC3)cc(C#N)n1C [Example 28, 4-[3-Hydroxy-18,19-dimethyl-12,21-dioxo-7,8,9,10,18,21-hexahydro-6H,12H,22H-8,11-ethano-20,17-(metheno)dibenzo[b,j][1,4,8,13]oxatriazacycloocta-decin-22-yl]-1,5-dimethyl-1H-pyrrole-2-carbonitrile]	0.401 µM
0.0314 µM	–	–	Cc1c2cc(n1C)-c1cc(Cl)ccc1C(=O)N1CCc3c(cccc3OCCC[n+]3cccc(c3)N(c3ccc(O)cc3)C2=O)C1 [Example 30, 6-Chloro-14-(4-hydroxyphenyl)-10,11-dimethyl-2,13-dioxo-23-oxa-1,10,14-triaza-19-azoniahexacyclo[26.3.1.1˜9,12˜.1˜15,19˜.0˜3,8˜.0˜24,29˜]tetratriaconta-3,5,7,9(34),11,15(33),16,18,24,26,28-undecaene trifluoromethanesulphonate]	> 1.88 µM
–	74.55% @1.1 μM	–	Cc1c2cc(n1C)-c1cc(Cl)ccc1C(=O)N1CCc3c(cccc3OCCn3c(C)ncc(c3=O)N(c3ccc(O)cc3)C2=O)C1 [Example 31, 6-Chloro-14-(4-hydroxyphenyl)-10,11,18-trimethyl-22-oxa-1,10,14,17,19-pentaazahexacyclo[25.3.1.1˜9,12˜.1˜15,19˜.0˜3,8˜.0˜23,28˜]tritriaconta-3,5,7,9(33),11,15,17,23,25,27-decaene-2,13,32-trione]	1.33 µM
0.0693 µM	–	–	Cc1c2cc(n1C)-c1cc(Cl)ccc1C(=O)N1CCc3c(cccc3OCCOCCN(c3ccc(O)cc3)C2=O)C1 [Example 34, 18-chloro-11-(4-hydroxyphenyl)-14,15-dimethyl-6,7,10,11,23,24-hexahydro-9H,21H-1,22-methano-13,16-(metheno)dibenzo[m,s][1,4,7,11,16]dioxatriaza-cycloicosine-12,21(15H)-dione]	1.24 µM
–	–	41.5% @10 μM	Cc1c2cc(n1C)-c1cc(Cl)ccc1C(=O)N1Cc3cccc(c3C1)OCCOCCOc1ncc(cn1)N(c1ccc(O)cc1)C2=O [Example 36, 10-Chloro-2-(4-hydroxyphenyl)-5,6-dimethyl-23,26,29-trioxa-2,6,15,31,34-pentaazahexacyclo[28.2.2.1˜4,7˜.1˜15,18˜.0˜8,13˜.0˜17,22˜]hexatriaconta-1(32),4,7(36),8,10,12,17,19,21,30,33-undecaene-3,14-dione]	> 0.6 µM
0.0102 µM	–	–	Cc1c2cc(n1C)-c1cc(F)ccc1C(=O)N1CCc3c(cccc3OCCOCCOc3ncc(cn3)N(c3ccc(O)cc3)C2=O)C1 [Example 37, 10-Fluoro-2-(4-hydroxyphenyl)-5,6-dimethyl-24,27,30-trioxa-2,6,15,32,35-pentaazahexacyclo[29.2.2.1˜4,7˜.1˜15,19˜.0˜8,13˜.0˜18,23˜]heptatriaconta-1(33),4,7(37),8,10,12,18,20,22,31,34-undecuene-3,14-dione]	0.0496 µM
0.00385 µM	–	–	Cc1c2cc(n1C)-c1cc(Cl)ccc1C(=O)N1CCc3c(cccc3OCCOCCOc3ncc(cn3)N(c3ccc(O)cc3)C2=O)C1 [Example 38, 10-Chloro-2-(4-hydroxyphenyl)-5,6-dimethyl-24,27,30-trioxa-2,6,15,32,35-pentaazahexacyclo[29.2.2.1˜4,7˜.1˜15,19˜.0˜8,13˜.0˜18,23˜]heptatriaconta-1(33),4,7(37), 8,10,12,18,20,22,31,34-undecuene-3,14-dione]	0.0231 µM
0.0768 µM	–	–	Cc1c2cc(n1C)-c1cc(Cl)ccc1C(=O)N1CCc3c(cccc3OCCCCCCOc3ncc(cn3)N(c3ccc(O)cc3)C2=O)C1 [Example 39, 10-Chloro-2-(4-hydroxyphenyl)-5,6-dimethyl-24,31-dioxa-2,6,15,33,36-pentaazahexacyclo[30.2.2.1˜4,7˜.1˜15,19˜.0˜8,13˜.0˜18,23˜]octatriaconta-1(34),4,7(38),8,10,12,18,20,22,32,35-undecuene-3,14-dione]	0.149 µM
0.0064 µM	–	–	Cc1c2cc(n1C)-c1cc(Cl)ccc1C(=O)N1CCc3c(cccc3OCCCCCOc3ncc(cn3)N(c3ccc(O)cc3)C2=O)C1 [Example 40, 10-Chloro-2-(4-hydroxyphenyl)-5,6-dimethyl-24,30-dioxa-2,6,15,32,35-pentaazahexacyclo[29.2.2.1˜4,7˜.1˜15,19˜.0˜8,13˜.0˜8,23˜]heptatriaconta-1(33),4,7(37),8,10,12,18,20,22,31,34-undecuene-3,14-dione]	0.0299 µM
0.0467 µM	–	–	Cc1c2cc(n1C)-c1cc(Cl)ccc1C(=O)N1CCc3c(cccc3OCCCCOc3ncc(cn3)N(c3ccc(O)cc3)C2=O)C1 [Example 41, 10-Chloro-2-(4-hydroxyphenyl)-5,6-dimethyl-24,29-dioxa-2,6,15,31,34-pentaazahexacyclo[28.2.2.1˜4,7˜.1˜15,19˜.0˜8,13˜.0˜18,23˜]hexatriaconta-1(32),4,7(36),8,10,12,18,20,22,30,33-undecaene-3,14-dione]	0.197 µM
–	–	39.2% @10 μM	Cc1c2cc(n1C)-c1cc(Cl)ccc1C(=O)N1CCCC(COCCOCCOc3ncc(cn3)N(c3ccc(O)cc3)C2=O)C1 (stereo not drawn) [Example 42, 10-Chloro-2-(4-hydroxyphenyl)-5,6-dimethyl-21,24,27-trioxa-2,6,15,29,32-pentaazapentacyclo[26.2.2.1˜4,7˜.1˜15,19˜.0˜8,13˜]tetratriaconta-1(30),4, 7(34),8,10,12,28,31-octaene-3,14-dione]	> 0.6 µM
